Experimental data as given in PubChem BioAssay AID651675 (Sanford-Burnham Center for Chemical Genomics, 2012).
Activity calls are given as the source filed them.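 Rule for the calls: active = compounds raising alpha-dystroglycan glycosylation signal with mean half-maximal concentration of 20 µM or lower; inactive = the rest.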

Each compound was assayed on Pro5-aDG cells, alpha-DG glycosylation, IIH6 AlphaLISA (assay: alpha-DG glycosylation activators, analog potency, SAR follow-up, Pro5-aDG cells, AlphaLISA (AID 651675)).

EC50	Structure (SMILES)
5.69 µM	C=CCNc1nc(-c2c[nH]c3ccccc23)cs1
3.99 µM	CCc1cccc2c(-c3csc(NC)n3)c[nH]c12
34.5 µM (inactive)	Cn1c(=N)n(CC(=O)c2ccc(F)cc2)c2ccccc21
30.9 µM (inactive)	Cn1c(=N)n(CC(=O)c2ccc(Cl)cc2)c2ccccc21
15.5 µM	N=c1n(CC(=O)c2ccc(Cl)c(Cl)c2)c2ccccc2n1Cc1ccccc1

The next lines start with the compound.

Structure (SMILES)	EC50
CNc1nc(-c2c[nH]c3ccccc23)cs1	10.3 µM
C=CCn1c(=N)n(CC(=O)c2ccc(Cl)c(Cl)c2)c2ccccc21	33.3 µM (inactive)
N=c1n(CCN2CCCC2)c2ccccc2n1CC(=O)c1ccc(Cl)c(Cl)c1	24.2 µM (inactive)
c1ccc(CCNc2nc(-c3c[nH]c4ccccc34)cs2)cc1	5.13 µM
CCC(C)Nc1nc(-c2c[nH]c3ccccc23)cs1 (centres undefined)	7.05 µM
CCn1c(=N)n(CC(=O)c2ccc(Cl)c(Cl)c2)c2ccccc21	25.2 µM (inactive)
CCn1c(=N)n(CC(=O)c2ccc(Cl)cc2)c2ccccc21	26.6 µM (inactive)
Cn1c(=N)n(CC(=O)c2ccc(Cl)c(Cl)c2)c2ccccc21	26 µM (inactive)
CC(Cc1ccccc1)Nc1nc(-c2c[nH]c3ccccc23)cs1 (centres undefined)	8.68 µM
